pIC50: −log10 of the molar value.
Columns and labels:
Type in all cases: cell-based
[1] = system: human chronic myelocytic leukemia K562 cells; test: Growth inhibition test (MTS) on K562 cells; conditions: Homo sapiens, K562, 72 hours, read-out: K562 ED50
Description: Ten thousand cells of human chronic myelocytic leukemia K562 were inoculated into each well of a 96-well microplate (manufactured by Corning Corp.) using Iscove's MDM medium (culture medium) containing 10% fetal calf serum (FCS). Next day, a dimethyl sulfoxide (DMSO) solution of each test compound prepared in a concentration of 10 mmol/L was further diluted with culture medium to the desired concentrations (0.1, 0.5, 1, 2.5, 5 and 10 micromol/L), and the diluted solution was added to each well. The individual wells were further cultured in 5% carbon dioxide at 37° C. for 72 hours. After completion of the culture, 10 μl MTS (3-(4,5-Dimethyl-2-thiazolyl)-5-(carboxymethoxyphenyl)-2-(4-sulfophenyl)-2H-tetrazolium, inner salt assay (CellTiter96® AQueous One Solution Cell Proliferation Assay, Promega) was added to each well, and culturing was performed in 5% carbon dioxide at 37° C. for 2 hours. Using a microplate spectrophotometer (Synergy 2 multi-mode microplate reader (BioTek)), the absorbance of each well was measured at 490 nm. The value for cells not incorporated with a test compound was designated as 100%. By comparing these values with the absorbance difference obtained at the well in which each test compound was added, the cell viability (% viability) after treatment with the test compound was calculated.

[2] = system: human colorectal adenocarcinoma SW480 cells; test: Growth inhibition test (MTS) on SW480 cells; conditions: Homo sapiens, SW480, 72 hours, read-out: SW480 ED50
[3] = system: human myelomonocytic, biphenotypic leukemia MV4-11 cells; test: Growth inhibition test (MTS) on MV4-11 cells; conditions: Homo sapiens, MV4-11, 72 hours, read-out: MV-4-11 ED50
In short: MV4-

[4] = system: human prostate adenocarcinoma PC3 cells; test: Growth inhibition test (MTS) on PC3 cells; conditions: Homo sapiens, PC-3, 72 hours, read-out: PC-3 ED50
[5] = system: human hepatoma HepG2 cells; test: Growth inhibition test (MTS) on HepG2 cells; conditions: 72 hours, read-out: HepG2 ED50
In short: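 HepG2 cells in DMEM with 10% FCS were exposed for 72 h at 37 °C, 5% CO2, to 0.1, 0.5, 1, 2.5, 5 and 10 micromol/L compound. MTS was then added for 2 h and absorbance read at 490 nm. % viability was calculated relative to untreated cells set at 100%.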

## Brc1c(Br)c(Br)c2[nH]cnc2c1Br [TBI, 4,5,6,7-tetrabromo-1H-benzimidazole, reference compound]
[1]
  pIC50: < 5.00
[2]
  pIC50: 5.14
[3]
  pIC50: < 5.00
[4]
  pIC50: < 5.00
[5]
  pIC50: < 5.00

Source: patent US8604217B2, “Compound, a process for its preparation, a pharmaceutical composition, use of a compound, a method for modulating or regulating serine/threonine kinases and a serine/threonine kinases modulating agent” (Selvita S.A., priority 2009, dated 2013)
